# Reference: ChEMBL document CHEMBL5723582, “Data for DCP probe T-10430” (2024)
# Columns and labels:
# Conditions in all cases: Compound concentration 1.0 uM
# [1] = biological target: Type-1 angiotensin II receptor (Homo sapiens) (UniProt P30556); assay: RLU of AGTR1 at 1.0 µM in the […] PRESTO-Tango GPCRome screen
# [2] = biological target: B2 bradykinin receptor (Homo sapiens) (UniProt P30411); assay: RLU of BDKRB2 at 1.0 µM in the […] PRESTO-Tango GPCRome screen
# [3] = biological target: Calcitonin gene-related peptide type 1 receptor (Homo sapiens) (UniProt Q16602); assay: RLU of CALCRL at 1.0 µM in the […] PRESTO-Tango GPCRome screen
# [4] = biological target: Chemerin-like receptor 1 (Homo sapiens) (UniProt Q99788); assay: RLU of CMKLR1 at 1.0 µM in the […] PRESTO-Tango GPCRome screen
# [5] = biological target: C-X-C chemokine receptor type 5 (Homo sapiens) (UniProt P32302); assay: RLU of CXCR5 at 1.0 µM in the […] PRESTO-Tango GPCRome screen
# Sequence of C-X-C chemokine receptor type 5 (Homo sapiens) (P32302 whole entry): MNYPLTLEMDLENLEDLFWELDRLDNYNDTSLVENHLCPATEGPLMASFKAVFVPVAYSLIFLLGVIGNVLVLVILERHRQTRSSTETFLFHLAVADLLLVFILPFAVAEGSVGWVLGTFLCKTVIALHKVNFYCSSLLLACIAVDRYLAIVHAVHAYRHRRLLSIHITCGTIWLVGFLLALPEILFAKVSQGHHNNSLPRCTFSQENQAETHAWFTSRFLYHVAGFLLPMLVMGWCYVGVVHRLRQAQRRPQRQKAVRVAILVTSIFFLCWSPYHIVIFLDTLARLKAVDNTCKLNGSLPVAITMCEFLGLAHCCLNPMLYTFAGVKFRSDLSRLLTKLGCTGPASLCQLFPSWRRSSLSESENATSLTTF
# [6] = biological target: C-X-C chemokine receptor type 6 (Homo sapiens) (UniProt O00574); assay: RLU of CXCR6 at 1.0 µM in the […] PRESTO-Tango GPCRome screen
# Sequence of C-X-C chemokine receptor type 6 (Homo sapiens) (O00574 whole entry, looked up): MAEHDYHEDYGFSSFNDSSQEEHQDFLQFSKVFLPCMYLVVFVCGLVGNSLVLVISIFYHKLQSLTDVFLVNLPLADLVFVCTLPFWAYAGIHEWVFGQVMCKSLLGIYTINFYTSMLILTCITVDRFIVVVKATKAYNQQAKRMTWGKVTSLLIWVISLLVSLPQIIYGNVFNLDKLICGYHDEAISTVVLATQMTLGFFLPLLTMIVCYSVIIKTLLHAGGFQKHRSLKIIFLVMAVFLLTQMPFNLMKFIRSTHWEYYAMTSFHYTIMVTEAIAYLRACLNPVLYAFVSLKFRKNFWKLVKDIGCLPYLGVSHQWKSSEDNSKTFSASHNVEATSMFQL
# [7] = biological target: Proteinase-activated receptor 2 (Homo sapiens) (UniProt P55085); assay: RLU of F2RL1 at 1.0 µM in the […] PRESTO-Tango GPCRome screen
# [8] = biological target: Free fatty acid receptor 2 (Homo sapiens) (UniProt O15552); assay: RLU of FFA2 (GPR43) at 1.0 µM in the […] PRESTO-Tango GPCRome screen
# Sequence of Free fatty acid receptor 2 (Homo sapiens) (O15552 whole entry): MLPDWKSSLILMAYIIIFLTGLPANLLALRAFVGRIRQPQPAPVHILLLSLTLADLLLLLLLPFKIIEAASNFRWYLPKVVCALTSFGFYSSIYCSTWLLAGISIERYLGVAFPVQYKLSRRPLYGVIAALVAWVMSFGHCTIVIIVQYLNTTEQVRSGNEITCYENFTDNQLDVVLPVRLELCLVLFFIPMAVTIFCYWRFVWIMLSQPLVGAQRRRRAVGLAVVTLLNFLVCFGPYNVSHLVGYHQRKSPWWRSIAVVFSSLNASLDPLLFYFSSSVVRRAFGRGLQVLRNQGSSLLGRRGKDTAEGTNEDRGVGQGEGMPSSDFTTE
# [9] = biological target: Galanin receptor type 1 (Homo sapiens) (UniProt P47211); assay: RLU of GAL1 at 1.0 µM in the […] PRESTO-Tango GPCRome screen
# Sequence of Galanin receptor type 1 (Homo sapiens) (P47211 whole entry): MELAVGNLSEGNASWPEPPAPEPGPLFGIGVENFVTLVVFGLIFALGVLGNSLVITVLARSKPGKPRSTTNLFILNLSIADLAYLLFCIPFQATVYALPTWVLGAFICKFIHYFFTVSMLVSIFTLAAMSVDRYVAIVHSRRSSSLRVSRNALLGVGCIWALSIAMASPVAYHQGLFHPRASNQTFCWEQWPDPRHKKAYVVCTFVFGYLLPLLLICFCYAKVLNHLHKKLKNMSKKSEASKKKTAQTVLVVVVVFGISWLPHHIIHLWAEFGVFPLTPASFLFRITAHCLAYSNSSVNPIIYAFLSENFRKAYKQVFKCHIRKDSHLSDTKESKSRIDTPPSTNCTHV
# [10] = biological target: Glucagon-like peptide 1 receptor (Homo sapiens) (UniProt P43220); assay: RLU of GLP1R at 1.0 µM in the […] PRESTO-Tango GPCRome screen
# [11] = biological target: Free fatty acid receptor 4 (Homo sapiens) (UniProt Q5NUL3); assay: RLU of GPR120 at 1.0 µM in the […] PRESTO-Tango GPCRome screen
# [12] = biological target: Adhesion G-protein coupled receptor G6 (Homo sapiens) (UniProt Q86SQ4); assay: RLU of GPR126 at 1.0 µM in the […] PRESTO-Tango GPCRome screen
# [13] = biological target: Probable G-protein coupled receptor 148 (Homo sapiens) (UniProt Q8TDV2); assay: RLU of GPR148 at 1.0 µM in the […] PRESTO-Tango GPCRome screen
# [14] = biological target: Probable G-protein coupled receptor 162 (Homo sapiens) (UniProt Q16538); assay: RLU of GPR162 at 1.0 µM in the […] PRESTO-Tango GPCRome screen
# [15] = biological target: N-arachidonyl glycine receptor (Homo sapiens) (UniProt Q14330); assay: RLU of GPR18 at 1.0 µM in the […] PRESTO-Tango GPCRome screen
# [16] = biological target: G-prodeshotein coupled receptor 4 (Homo sapiens) (UniProt P46093); assay: RLU of GPR4 at 1.0 µM in the […] PRESTO-Tango GPCRome screen
# [17] = biological target: G-protein coupled receptor 6 (Homo sapiens) (UniProt P46095); assay: RLU of GPR6 at 1.0 µM in the […] PRESTO-Tango GPCRome screen
# Sequence of G-protein coupled receptor 6 (Homo sapiens) (P46095 whole entry): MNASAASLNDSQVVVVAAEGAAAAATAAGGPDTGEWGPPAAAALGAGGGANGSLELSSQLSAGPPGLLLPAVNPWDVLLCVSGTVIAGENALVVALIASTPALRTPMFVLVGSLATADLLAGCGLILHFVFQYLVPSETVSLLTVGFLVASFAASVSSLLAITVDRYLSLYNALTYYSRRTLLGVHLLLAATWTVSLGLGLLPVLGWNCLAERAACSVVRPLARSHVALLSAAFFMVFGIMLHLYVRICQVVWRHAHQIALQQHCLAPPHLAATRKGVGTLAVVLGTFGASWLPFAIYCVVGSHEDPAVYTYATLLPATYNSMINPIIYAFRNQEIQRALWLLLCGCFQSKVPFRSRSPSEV
# [18] = biological target: G-protein coupled receptor 62 (Homo sapiens) (UniProt Q9BZJ7); assay: RLU of GPR62 at 1.0 µM in the […] PRESTO-Tango GPCRome screen
# Sequence of G-protein coupled receptor 62 (Homo sapiens) (Q9BZJ7 whole entry): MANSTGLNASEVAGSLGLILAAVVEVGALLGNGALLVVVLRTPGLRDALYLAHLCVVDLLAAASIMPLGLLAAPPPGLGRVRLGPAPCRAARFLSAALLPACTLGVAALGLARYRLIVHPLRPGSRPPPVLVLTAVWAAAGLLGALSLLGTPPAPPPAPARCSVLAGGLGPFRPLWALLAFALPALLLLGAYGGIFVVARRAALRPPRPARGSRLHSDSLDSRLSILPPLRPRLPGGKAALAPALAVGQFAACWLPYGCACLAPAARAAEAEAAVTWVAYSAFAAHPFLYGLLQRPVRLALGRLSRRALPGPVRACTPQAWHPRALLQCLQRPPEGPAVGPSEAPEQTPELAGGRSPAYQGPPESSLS
# [19] = biological target: G-protein coupled receptor 65 (Homo sapiens) (UniProt Q8IYL9); assay: RLU of GPR65 at 1.0 µM in the […] PRESTO-Tango GPCRome screen
# Sequence of G-protein coupled receptor 65 (Homo sapiens) (Q8IYL9 whole entry): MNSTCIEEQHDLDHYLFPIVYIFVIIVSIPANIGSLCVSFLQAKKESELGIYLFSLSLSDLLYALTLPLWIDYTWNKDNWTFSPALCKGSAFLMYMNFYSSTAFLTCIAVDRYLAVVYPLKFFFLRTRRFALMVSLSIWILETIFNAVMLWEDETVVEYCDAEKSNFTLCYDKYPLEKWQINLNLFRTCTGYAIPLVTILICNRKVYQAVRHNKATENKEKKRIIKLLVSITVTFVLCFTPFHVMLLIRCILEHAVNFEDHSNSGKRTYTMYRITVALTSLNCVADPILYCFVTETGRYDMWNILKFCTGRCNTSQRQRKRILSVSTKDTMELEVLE
# [20] = biological target: Probable G-protein coupled receptor 82 (Homo sapiens) (UniProt Q96P67); assay: RLU of GPR82 at 1.0 µM in the […] PRESTO-Tango GPCRome screen
# Sequence of Probable G-protein coupled receptor 82 (Homo sapiens) (Q96P67 whole entry): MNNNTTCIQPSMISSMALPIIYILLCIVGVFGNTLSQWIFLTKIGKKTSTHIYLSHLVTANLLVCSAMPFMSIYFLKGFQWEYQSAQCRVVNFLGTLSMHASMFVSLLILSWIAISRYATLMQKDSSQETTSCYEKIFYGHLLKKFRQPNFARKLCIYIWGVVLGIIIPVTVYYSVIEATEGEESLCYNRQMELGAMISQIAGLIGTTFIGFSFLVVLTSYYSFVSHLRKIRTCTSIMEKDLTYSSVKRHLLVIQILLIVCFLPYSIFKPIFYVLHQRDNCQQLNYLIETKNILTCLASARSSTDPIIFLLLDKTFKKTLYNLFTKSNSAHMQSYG
# [21] = biological target: Histamine H4 receptor (Homo sapiens) (UniProt Q9H3N8); assay: RLU of HRH4 at 1.0 µM in the Aequorin PRESTO-Tango GPCRome screen
# [22] = biological target: 5-hydroxytryptamine receptor 1E (Homo sapiens) (UniProt P28566); assay: RLU of HTR1E at 1.0 µM in the […] PRESTO-Tango GPCRome screen
# Sequence of 5-hydroxytryptamine receptor 1E (Homo sapiens) (P28566 whole entry): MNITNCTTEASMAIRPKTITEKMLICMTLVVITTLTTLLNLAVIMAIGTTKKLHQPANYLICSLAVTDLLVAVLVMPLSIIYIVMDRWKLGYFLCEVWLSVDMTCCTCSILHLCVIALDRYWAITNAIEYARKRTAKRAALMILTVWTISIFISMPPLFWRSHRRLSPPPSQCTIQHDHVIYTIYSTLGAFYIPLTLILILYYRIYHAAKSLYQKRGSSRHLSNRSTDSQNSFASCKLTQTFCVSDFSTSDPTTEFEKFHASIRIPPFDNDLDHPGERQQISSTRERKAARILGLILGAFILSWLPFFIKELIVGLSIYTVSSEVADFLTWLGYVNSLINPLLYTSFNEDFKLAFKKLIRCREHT
# [23] = biological target: Melanin-concentrating hormone receptor 1 (Homo sapiens) (UniProt Q99705); assay: RLU of MCHR1 at 1.0 µM in the […] PRESTO-Tango GPCRome screen
# Sequence of Melanin-concentrating hormone receptor 1 (Homo sapiens) (Q99705 whole entry): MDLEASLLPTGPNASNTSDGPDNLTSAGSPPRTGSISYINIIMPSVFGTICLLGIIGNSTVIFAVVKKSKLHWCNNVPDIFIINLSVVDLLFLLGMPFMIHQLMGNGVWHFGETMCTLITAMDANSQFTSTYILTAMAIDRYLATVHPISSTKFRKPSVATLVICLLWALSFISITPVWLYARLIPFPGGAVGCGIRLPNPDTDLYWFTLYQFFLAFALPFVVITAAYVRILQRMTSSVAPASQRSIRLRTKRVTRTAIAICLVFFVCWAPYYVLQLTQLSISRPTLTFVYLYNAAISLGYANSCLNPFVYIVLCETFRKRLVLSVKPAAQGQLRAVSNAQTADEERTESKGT
# [24] = biological target: Mas-related G-protein coupled receptor member X3 (Homo sapiens) (UniProt Q96LB0); assay: RLU of MRGPRX3 at 1.0 µM in the […] PRESTO-Tango GPCRome screen
# [25] = biological target: Neuromedin-U receptor 1 (Homo sapiens) (UniProt Q9HB89); assay: RLU of NMUR1 at 1.0 µM in the […] PRESTO-Tango GPCRome screen
# [26] = biological target: Neuropeptide FF receptor 1 (Homo sapiens) (UniProt Q9GZQ6); assay: RLU of NPFF1 at 1.0 µM in the […] PRESTO-Tango GPCRome screen
# Sequence of Neuropeptide FF receptor 1 (Homo sapiens) (Q9GZQ6 whole entry): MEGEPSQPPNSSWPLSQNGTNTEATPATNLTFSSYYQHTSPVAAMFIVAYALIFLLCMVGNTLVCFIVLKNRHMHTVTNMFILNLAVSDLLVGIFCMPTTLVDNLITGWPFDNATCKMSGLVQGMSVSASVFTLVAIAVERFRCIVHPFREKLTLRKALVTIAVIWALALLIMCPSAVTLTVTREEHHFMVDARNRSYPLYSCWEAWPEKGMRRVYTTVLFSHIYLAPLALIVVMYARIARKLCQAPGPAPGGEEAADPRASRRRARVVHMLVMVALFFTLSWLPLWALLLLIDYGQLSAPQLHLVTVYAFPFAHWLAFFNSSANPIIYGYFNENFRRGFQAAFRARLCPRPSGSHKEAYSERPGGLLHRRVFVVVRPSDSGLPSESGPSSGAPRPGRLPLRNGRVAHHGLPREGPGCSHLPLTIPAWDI
# [27] = biological target: Neuropeptide Y receptor type 2 (Homo sapiens) (UniProt P49146); assay: RLU of NPY2R at 1.0 µM in the […] PRESTO-Tango GPCRome screen
# [28] = biological target: Opsin-5 (Homo sapiens) (UniProt Q6U736); assay: RLU of OPN5 at 1.0 µM in the […] PRESTO-Tango GPCRome screen
# Sequence of Opsin-5 (Homo sapiens) (Q6U736 whole entry): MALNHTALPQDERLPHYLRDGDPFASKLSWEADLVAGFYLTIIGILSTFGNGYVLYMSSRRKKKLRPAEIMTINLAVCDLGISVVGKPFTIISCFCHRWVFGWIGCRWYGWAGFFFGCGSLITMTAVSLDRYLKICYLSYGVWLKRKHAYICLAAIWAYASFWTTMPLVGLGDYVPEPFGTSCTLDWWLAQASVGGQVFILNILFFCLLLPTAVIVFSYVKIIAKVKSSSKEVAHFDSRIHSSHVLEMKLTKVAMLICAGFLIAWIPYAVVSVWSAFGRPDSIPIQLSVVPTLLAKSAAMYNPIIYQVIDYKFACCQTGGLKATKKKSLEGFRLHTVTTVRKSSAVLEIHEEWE
# [29] = biological target: Nociceptin receptor (Homo sapiens) (UniProt P41146); assay: RLU of OPRL1 at 1.0 µM in the […] PRESTO-Tango GPCRome screen
# [30] = biological target: P2Y purinoceptor 1 (Homo sapiens) (UniProt P47900); assay: RLU of P2RY1 at 1.0 µM in the […] PRESTO-Tango GPCRome screen
# [31] = biological target: S-geranylgeranyl-glutathione receptor P2RY8 (Homo sapiens) (UniProt Q86VZ1); assay: RLU of P2RY8 at 1.0 µM in the […] PRESTO-Tango GPCRome screen
# [32] = biological target: Prostaglandin E2 receptor EP2 subtype (Homo sapiens) (UniProt P43116); assay: RLU of PTGER2 at 1.0 µM in the […] PRESTO-Tango GPCRome screen
# [33] = biological target: Sphingosine 1-phosphate receptor 2 (Homo sapiens) (UniProt O95136); assay: RLU of S1PR2 at 1.0 µM in the […] PRESTO-Tango GPCRome screen
# [34] = biological target: Succinate receptor 1 (Homo sapiens) (UniProt Q9BXA5); assay: RLU of SUCNR1 at 1.0 µM in the […] PRESTO-Tango GPCRome screen
# [35] = biological target: Trace amine-associated receptor 9 (Homo sapiens) (UniProt Q96RI9); assay: RLU of TAAR9 at 1.0 µM in the […] PRESTO-Tango GPCRome screen
# Sequence of B2 bradykinin receptor (Homo sapiens) (P30411 whole entry): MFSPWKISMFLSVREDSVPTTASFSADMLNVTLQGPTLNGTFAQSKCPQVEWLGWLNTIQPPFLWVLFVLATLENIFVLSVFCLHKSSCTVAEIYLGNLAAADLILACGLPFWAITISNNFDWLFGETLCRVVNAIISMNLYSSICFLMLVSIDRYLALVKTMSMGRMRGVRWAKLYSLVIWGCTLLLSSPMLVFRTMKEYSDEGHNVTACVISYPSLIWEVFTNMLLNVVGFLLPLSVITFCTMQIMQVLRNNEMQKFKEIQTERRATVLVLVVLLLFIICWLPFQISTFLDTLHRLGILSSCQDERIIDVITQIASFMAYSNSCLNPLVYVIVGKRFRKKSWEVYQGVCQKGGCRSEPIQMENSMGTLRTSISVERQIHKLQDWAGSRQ
smiles,measurement,setting,value
CCCCC(=O)N1CC2(C1)CN(c1ccccc1-c1nnn[nH]1)C2,RLU,[1],9130
same,RLU,[2],892
same,RLU,[3],2370
same,RLU,[4],-333
same,RLU,[5],-793
same,RLU,[6],761
same,RLU,[7],-1270
same,RLU,[8],-5970
same,RLU,[9],-212
same,RLU,[10],3480
same,RLU,[11],1030
same,RLU,[12],-6500
same,RLU,[13],3090
same,RLU,[14],6270
same,RLU,[15],-383
same,RLU,[16],-970
same,RLU,[17],1.07e+06
same,RLU,[18],477000
same,RLU,[19],-1350
same,RLU,[20],-8050
same,RLU,[21],-637
same,RLU,[22],-638
same,RLU,[23],5930
same,RLU,[24],-916
same,RLU,[25],1950
same,RLU,[26],4030
same,RLU,[27],559
same,RLU,[28],4000
same,RLU,[29],2760
same,RLU,[30],1690
same,RLU,[31],1330
same,RLU,[32],613
same,RLU,[33],401
same,RLU,[34],1540
same,RLU,[35],-547
